Assay [1] has as its system Staphylococcus aureus ATCC 6538 P FDA 209P. Nature of the assay: Antimicrobial activity, serial microdilutions, Sa. Format: cell-based. The conditions noted are these: Staphylococcus aureus; for MIC: read-out: Minimum Inhibitory Concentration (MIC); for MBC: read-out: Minimum bactericidal and fungicidal concentrations (MBC, MFC). On the procedure:
(§1) The antimicrobial activity of test compounds was determined by serial microdilutions in 96-well plates using Mueller-Hinton broth for bacterial culture and Sabouraud broth for yeast culture. Cultures of Gram-positive bacteria were used in the experiment: Staphylococcus aureus ATCC 6538 P FDA 209P, Bacillus cereus ATCC 10702 NCTC 8035, Enterococcus faecalis ATCC 29212; Gram-negative bacteria: Escherichia coli ATCC 25922, Pseudomonas aeruginosa ATCC 9027; and yeast: Candida albicans ATCC 10231, purchased from the State Collection of Pathogenic Microorganisms and Cell Cultures “SCPM-Obolensk” (Obolensk, Russia). Methicillin-resistant strains of S. aureus (MRSA) were isolated from patients with chronic tonsillitis (MRSA-1) and sinusitis (MRSA-2) in the bacteriological laboratory of the Republican Clinical Hospital (Kazan, Russia). The experiments were carried out in triplicate.

The test system of assay [2] is Enterococcus faecalis ATCC 29212. Nature of the assay: Antimicrobial activity, serial microdilutions, Ef. On the set-up: key to Minimum Inhibitory Concentration (MIC) / Minimum bactericidal and fungicidal concentrations (MBC, MFC): – means non-active. In kind it is cell-based. To be noted: for MIC: ATCC29212, read-out: Minimum Inhibitory Concentration (MIC). Here is the method:
as §1

Assay [3] has as its system Bacillus cereus ATCC 10702 NCTC 8035. Nature of the assay: Antimicrobial activity, serial microdilutions, Bc. In kind it is cell-based. On the set-up: key to Minimum bactericidal and fungicidal concentrations (MBC, MFC): – means non-active. To be noted: for MIC / MBC: Bacillus cereus; for MIC: read-out: Minimum Inhibitory Concentration (MIC); for MBC: read-out: Minimum bactericidal and fungicidal concentrations (MBC, MFC). On the procedure:
as §1

Assay [4] has as its system MRSA-2. Nature of the assay: Antimicrobial activity, serial microdilutions, MRSA-2. Format: cell-based, S. aureus. The conditions noted are these: Staphylococcus aureus; for MIC: read-out: Minimum Inhibitory Concentration (MIC); for MBC: read-out: Minimum bactericidal and fungicidal concentrations (MBC, MFC). Here is the method:
as §1

Assay [5] deals with MRSA-1. Nature of the assay: Antimicrobial activity, serial microdilutions, MRSA-1. In kind it is cell-based, S. aureus. Also on record: key to Minimum Inhibitory Concentration (MIC) / Minimum bactericidal and fungicidal concentrations (MBC, MFC): – means non-active. The conditions noted are these: for MIC / MBC: Staphylococcus aureus; for MIC: read-out: Minimum Inhibitory Concentration (MIC); for MBC: read-out: Minimum bactericidal and fungicidal concentrations (MBC, MFC). Here is the method: as §1

For assay [6], the system named is Pseudomonas aeruginosa ATCC 9027. Nature of the assay: Antimicrobial activity, serial microdilutions, Pa. On the set-up: key to Minimum Inhibitory Concentration (MIC) / Minimum bactericidal and fungicidal concentrations (MBC, MFC): – means non-active. In kind it is cell-based. The conditions noted are these: for MIC / MBC: Pseudomonas aeruginosa; for MIC: ATCC9027, read-out: Minimum Inhibitory Concentration (MIC); for MBC: ATCC9027, read-out: Minimum bactericidal and fungicidal concentrations (MBC, MFC). Here is the method: as §1

Assay [7] has as its system Escherichia coli ATCC 25922. Nature of the assay: Antimicrobial activity, serial microdilutions, Ec. Format: cell-based. On the set-up: key to Minimum Inhibitory Concentration (MIC) / Minimum bactericidal and fungicidal concentrations (MBC, MFC): – means non-active. The conditions noted are these: for MIC / MBC: Escherichia coli; for MIC: ATCC25922, read-out: Minimum Inhibitory Concentration (MIC); for MBC: ATCC25922, read-out: Minimum bactericidal and fungicidal concentrations (MBC, MFC). On the procedure:
as §1

The subject of assay [8] is Candida albicans ATCC 10231. Nature of the assay: Antimicrobial activity, serial microdilutions, Ca. Also on record: key to Minimum Inhibitory Concentration (MIC) / Minimum bactericidal and fungicidal concentrations (MBC, MFC): – means non-active. Format: cell-based. The conditions noted are these: for Minimum Inhibitory Concentration (MIC) / Minimum bactericidal and fungicidal concentrations (MBC, MFC): Ca; for MIC: read-out: Minimum Inhibitory Concentration (MIC). On the procedure:
as §1

Assay [9] concerns MCF-7. The conditions noted are these: calculated relative to the cell line WI38 (a).
Assay [10] relates to Hep G2.
Assay [11] relates to PANC-1. Nature of the assay: cells. To be noted: Homo sapiens, PANC-1, 48 h, read-out: Cytotoxic Effects (IC50).
Assay [12] has as its system DU-145. Nature of the assay: cells. The conditions noted are these: Homo sapiens, DU-145, 48 h.
The subject of assay [13] is T98G. Nature of the assay: cells. The conditions noted are these: Homo sapiens, 48 h, read-out: Cytotoxic Effects (IC50).
Assay [14] has as its system PANC-1. To be noted: calculated relative to the cell line WI38 (a).
Assay [15] deals with M-HeLa. Nature of the assay: cells. To be noted: Homo sapiens, 48 h, read-out: Cytotoxic Effects (IC50).
The test system of assay [16] is HuTu 80. Nature of the assay: cells. To be noted: Homo sapiens, HuTu80, 48 h, read-out: Cytotoxic Effects (IC50).
Assay [17] deals with DU-145.
Assay [18] concerns A549. Nature of the assay: cells. The conditions noted are these: Homo sapiens, A549, 48 h, read-out: Cytotoxic Effects (IC50).
Assay [19] relates to Hep G2. Nature of the assay: cells. To be noted: Homo sapiens, HepG2, 48 h, read-out: Cytotoxic Effects (IC50).
Assay [20] concerns MCF-7. Nature of the assay: cells. The conditions noted are these: Homo sapiens, MCF7, 48 h, read-out: Cytotoxic Effects (IC50).
For assay [21], the system named is SK-OV-3.
Assay [22] concerns PC3. The conditions noted are these: calculated relative to the cell line WI38 (a).
In assay [23] the test system is PC3. Nature of the assay: cells. To be noted: Homo sapiens, PC-3, 48 h, read-out: Cytotoxic Effects (IC50), PC3, MTT assay, 48 h.
For assay [24], the system named is SK-OV-3. Nature of the assay: cells. The conditions noted are these: Homo sapiens, SK-OV-3, 48 h, read-out: Cytotoxic Effects (IC50).
Assay [25] concerns HuTu 80. The conditions noted are these: calculated relative to the cell line WI38 (a).
For assay [26], the system named is M-HeLa. To be noted: calculated relative to the cell line WI38 (a).
Assay [27] concerns A549. To be noted: reference normal cell line not marked at the place (ns cells).
In assay [28] the test system is T98G. To be noted: calculated relative to the cell line WI38 (a).
[29] abbreviates: reference normal cell line not marked at the place (ns cells).
Setting [30] is: read-out: Cytotoxic Effects (IC50), DU-145, MTT assay, 48 h.
The mark [31] stands for this setting: calculated relative to the cell line WI38 (a).

≈ marks a conversion by molar mass, not a printed value. Where two headings read alike, the source gives them in different places.

For the compound `CCn1cc(C(=O)O)c(=O)c2cc(F)c(N3CCNCC3)cc21` [Norfloxacin, reference compound], the MIC in assay [1] came out at 7.5 ± 0.5 µM (≈ 2.4 µg/mL); in [2] (Enterococcus faecalis), 24.4 ± 2.2 µM (≈ 7.79 µg/mL); in assay [3] (Bc), 24.4 ± 2.1 µM (≈ 7.79 µg/mL); in assay [4], 7.5 ± 0.5 µM (≈ 2.4 µg/mL); in assay [6], 12.1 ± 1.1 µM (≈ 3.86 µg/mL); in assay [7] it was 4.7 ± 0.02 µM (≈ 1.5 µg/mL). For the same compound, the MBC turned out to be 7.5 ± 0.6 µM (≈ 2.4 µg/mL) in [1]; 24.4 ± 1.9 µM (≈ 7.79 µg/mL) in assay [2] (Enterococcus faecalis, ATCC29212, read-out: Minimum bactericidal and fungicidal concentrations (MBC, MFC)); 24.4 ± 2.1 µM (≈ 7.79 µg/mL) in [3]; 7.5 ± 0.6 µM (≈ 2.4 µg/mL) in assay [4]; 49 ± 4.2 µM (≈ 15.6 µg/mL) in [6]; 24.4 ± 2.3 µM (≈ 7.79 µg/mL) in assay [7]. The “Minimum Inhibitory Concentration (MIC)” value in assay [5] and in assay [8] was “–” throughout. For the same compound, in [5], the “Minimum bactericidal and fungicidal concentrations (MBC, MFC)” value is reported as “–”.

As for `CCN(CC)[P+](CCCCCC[P+](N(CC)CC)(N(CC)CC)N(CC)CC)(N(CC)CC)N(CC)CC` [compound 9, 1,6-Hexanediyl-bis(hexaethyltriaminophosphonium)dibromide], the “selectivity index (SI)” value in [9] is 1.2; in [10] (setting [29]), “ns (ns—no selectivity)”; in [14] it was 1.2; in assay [17] (setting [29]), “ns (ns—no selectivity)”; in assay [21] (setting [31]), 1.3; in [22] it was 1.3. Also, the “selectivity index (SI)” value is 3.5 in assay [25] and 1.5 in assay [26]. Besides, the half-inhibitory concentration (IC50) in assay [11] is 39.6 ± 5.1 µM; in assay [12] (setting [30]), 50.5 ± 6.4 µM; in assay [13] it was > 100 µM; in [15], 31.1 ± 3.9 µM; in [16], 13.1 ± 1.7 µM; in [18] it was > 100 µM. Moreover, the IC50 in [19] amounted to 53.9 ± 6.9 µM; in assay [20] it was 37.8 ± 4.8 µM; in assay [23] it was 34.9 ± 4.5 µM; in [24], 36.4 ± 4.7 µM. Also, the MIC in [1] was found to be 34.3 ± 5.4 µM; in assay [3] (Bc) it was 274 ± 48 µM; in [4], 34.3 ± 5.3 µM; in assay [5] it was 137 ± 19 µM. Moreover, the MBC was found to be 137 ± 21 µM in assay [1], 137 ± 21 µM in assay [4] and 137 ± 18 µM in assay [5]. The “Minimum Inhibitory Concentration (MIC)” value in assay [2], in assay [6], in assay [7] and in assay [8] was “–” each time. Besides, the “Minimum bactericidal and fungicidal concentrations (MBC, MFC)” value in [2], in assay [3] (Bc), in [6], in assay [7] and in [8] was “–” in each case.

As for `COc1cccc2c1C(=O)c1c(O)c3c(c(O)c1C2=O)C[C@@](O)(C(=O)CO)C[C@@H]3O[C@H]1C[C@H](N)[C@H](O)[C@H](C)O1` [doxorubicin, reference compound], the IC50 came to 2.2 ± 0.1 µM in [11]; 0.3 ± 0.02 µM in [12] (read-out: Cytotoxic Effects (IC50)); 1 ± 0.09 µM in [13]; 2.1 ± 0.1 µM in [15]; 0.2 ± 0.01 µM in [16]; 0.7 ± 0.06 µM in [18]. Also, the IC50 in assay [19] turned out to be 0.2 ± 0.01 µM; in [20], 0.4 ± 0.03 µM; in [24], 6.7 ± 0.5 µM.

As for `CCCCCCCCC[P+](c1ccccc1)(c1ccccc1)N(CC)CC` [6c, (Diethylamino)(nonyl)diphenylphosphonium iodide], the “selectivity index (SI)” value in [9] is recorded as 2.0; in assay [10] (setting [31]) it was 1.3; in [14], 6.4; in assay [17] (setting [31]) it was 6.4; in [27], “ns (ns—no selectivity)”; in [28], 3.5. In addition, the results for the “selectivity index (SI)” value in assay [21] (setting [29]), in assay [22] and in [25] were “ns (ns—no selectivity)”, 8.3 and 42, respectively. Moreover, the IC50 in assay [11] was 1.3 ± 0.1 µM; in [12] (setting [30]), 1.3 ± 0.1 µM; in assay [13] it was 2.4 ± 0.1 µM; in [15], 0.9 ± 0.07 µM; in assay [16], 0.2 ± 0.01 µM; in [18], 11.4 ± 0.9 µM. Besides, the IC50 in assay [19] came to 6.2 ± 0.5 µM; in assay [20], 4.2 ± 0.3 µM; in assay [23], 1 ± 0.08 µM; in assay [24] it was 12.7 ± 1.1 µM. In addition, the MIC in assay [1] is 3.9 ± 0.3 µM; in [2] (Enterococcus faecalis), 31.3 ± 5.4 µM; in assay [3] (Bc), 1.9 ± 0.1 µM; in [4], 3.9 ± 0.4 µM; in [5] it was 3.9 ± 0.3 µM; in [6], 250 ± 21 µM. In addition, the MIC in assay [7] amounted to 500 ± 46 µM; in [8] (Candida albicans, ATCC10231) it was 500 ± 47 µM. In addition, the MBC is 125 ± 11 µM in [1]; > 500 µM in [3]; 7.8 ± 0.7 µM in assay [4]; 62.5 ± 5.4 µM in [5]; 250 ± 21 µM in [6]; 500 ± 47 µM in [7]. For the same compound, the “Minimum bactericidal and fungicidal concentrations (MBC, MFC)” value in assay [2] and in assay [8] was “–” each time.

Take `CC(=O)N1CCN(c2ccc(OCC3COC(Cn4ccnc4)(c4ccc(Cl)cc4Cl)O3)cc2)CC1` (stereo not drawn) [Ketoconazole, reference compound]: in assay [7], the “Minimum Inhibitory Concentration (MIC)” value was “–”. Besides, the MIC in assay [8] (Candida albicans, ATCC10231) stood at 7.3 ± 0.5 µM (≈ 3.88 µg/mL). In addition, the MBC in assay [8] (Candida albicans, ATCC10231, read-out: Minimum bactericidal and fungicidal concentrations (MBC, MFC)) was determined as 7.3 ± 0.5 µM (≈ 3.88 µg/mL).

The values are drawn from PMC10649961, “Novel Mitochondria-Targeted Amphiphilic Aminophosphonium Salts and Lipids Nanoparticles: Synthesis, Antitumor Activity and Toxicity” (Nanomaterials, 2023).
